Tested on: PMA-induced release of endogenous TNFα from human monocytic U-937 cells
Assay: ELISA-based TNFα release assay, PMA-induced, U-937 cells
Assay type: cell-based
Conditions: U-937, 1 h, PMA 25 ng/ml, Batimastat at 10 μM
Procedure: In brief, on day 1, Nunc black MaxiSorp® 96-well plates (Thermo Fisher Scientific, USA) were coated overnight with 100 μl per well of mouse anti-human TNFα capture antibody (provided as part of the DuoSet ELISA kit) at 4 μg/ml TBS at 4° C. On day 2, the capture antibody solution was removed and MaxiSorp® plates were blocked with 300 μl per well of TBS, 1% BSA at room temperature for 1-2 hours. Meanwhile, 80,000 U-937 (European Collection of Authenticated Cell Cultures, UK) cells in 80 μl of normal growth medium were seeded in each well of Greiner CELLSTAR V-bottom 96-well plates (Thermo Fisher Scientific, USA) and pre-incubated with 20 μl per well of standard growth medium supplemented with Batimastat (BB94, Abcam, UK) at 50 μM as positive control (for a final concentration of 10 μM in the resulting 100 μl sample volume), mouse IgG antibody (Thermo Fisher Scientific, USA) at 5 μg/ml as isotype control (for a final concentration of 1 μg/ml in the resulting 100 μl sample volume) or antibodies of the invention at 5 μg/ml (for a final concentration of 1 μg/ml in the resulting 100 μl sample volume) at 37° C., 5% CO2 for 30 minutes. […] Using an infinite M1000 (Tecan Group, Switzerland) microplate reader, the fluorescence of each well was collected at an excitation wavelength of 435 nm and an emission wavelength of 555 nm. […]

Compound `CNC(=O)[C@H](Cc1ccccc1)NC(=O)[C@H](CC(C)C)[C@H](CSc1cccs1)C(=O)NO` [Batimastat] has an inhibition at 10 µM (murine (m) and chimeric (ch) antibodies and IgG at 3 μg/ml) of 98.7% and an inhibition at 10 µM (recombinant murine antibodies and IgG at 1 μg/ml) of 100%.
